Measured values published in patent publication US11738065B2, “Polypeptides and analogues thereof for use in the treatment of diabetes and bone disorders” (UNIVERSITY OF ULSTER, priority 2015, dated 2023).
Where a SMILES comes first, the peptide text is derived from it. [ ]: non-standard residue; d: D form.

Experiments:
BRIN-BD11 cells = experiment: In vitro insulin secretion from BRIN-BD11 cells; assay type: cell-based; conditions: 20 min; for Insulin secretion from BRIN-BD11 cells: 10^−6 mol/l peptide, vs 5.6 and 16.7 mmol/l glucose control
Method: BRIN-BD11 cells were used to assess the insulin releasing activity of polypeptides as described by […] et al., 1996 (Diabetes. 1996 August; 45(8):1132-40). Cells were cultured in RPMI-1640 growth media supplemented with 10% (v/v) foetal bovine serum (FBS) and 1% (v/v) antibiotics (penicillin (100 U/ml), streptomycin ([…])), in 75 cm2 sterile tissue culture flasks (Greiner bio-one, UK) maintained at 37° C. and 5% CO2 in a LEEC incubator (Laboratory technical engineering, Nottingham, UK). BRIN-BD11 cells were then seeded at a density of 150,000 cells/well in 24-well plates (Nunc, Roskilde, Denmark) and allowed to attach overnight at 37° C.

purified porcine DPP-4 = molecular target: T1, purified porcine DPP-4 (Sus scrofa, UniProt P22411); experiment: DPP-4 degradation / in vitro DPP-4 half-life; assay type: in vitro ADME; conditions: incubated in the presence of DPP-4 for up to 12 hs
T1 construct: purchased Sigma-Aldrich, Dorset, UK
Method: (§1) For calculation of experimental molecular masses, peptide samples (1 μg) were mixed with α-cyano-4-hydroxycinnamic acid (1 μg) and applied to a Voyager-DE BioSpectrometry Workstation and mass-to-charge (m/z) ratio verses peak intensity recorded by MALDI-TOF mass spectrometry. […] Degradation profiles were obtained using rp-HPLC analysis and HPLC peak area data used to calculate percentage intact peptide remaining at each time point.
(§2) Briefly, polypeptides (20 μg) were incubated with 5 μl of purified DPP-4 (5 mU, Sigma-Aldrich, Dorset, UK) in 50 mM TEA-HCl (pH 7.8; final volume 450 μl) at 37° C. for 0, 1, 4 and 12 hours. Enzymatic reactions were terminated by the addition of 50 μl TFA/H2O (10% v/v, Sigma-Aldrich, Dorset, UK). Reaction products were then separated by HPLC and analysed using MALDI-TOF.

DPP-4 = molecular target: T2, DPP-4 (Sus scrofa, UniProt P22411); experiment: DPP-4 degradation / in vitro DPP-4 half-life; assay type: in vitro ADME, porcine; conditions: pig; 37° C., 50 mmol/L TEA-HCl pH 7.8, 5 mU purified porcine DPP-4, 0-12 h
T2 construct: purchased Sigma-Aldrich, Dorset, UK
Method: as §1, §2

lean control mice = experiment: Acute food intake in lean control mice; assay type: in vivo; conditions: 250 nmol/kg i.p., vs control
Method: Acute animal studies were conducted in male NIH Swiss mice (12-14 weeks old, Harlan Ltd, UK) maintained on a standard rodent maintenance diet (10% fat, 30% protein and 60% carbohydrate, Trouw Nutrition, Cheshire, UK). […] All animals were housed individually in an air-conditioned room at 22±2° C. with a 12 h light:12 h dark cycle and had free access to food and water. All animal experiments were carried out in accordance with the UK Animals (Scientific Procedures) Act 1986.
For food intake studies, fasted (18 h) mice were given intraperitoneal (i.p) injections of polypeptides at a dose of 25, 100 or 250 nmol/kg bw. Mice were then allowed free access to normal chow for 180 mins and cumulative food intake measured.

T2 sequence (P22411 whole entry): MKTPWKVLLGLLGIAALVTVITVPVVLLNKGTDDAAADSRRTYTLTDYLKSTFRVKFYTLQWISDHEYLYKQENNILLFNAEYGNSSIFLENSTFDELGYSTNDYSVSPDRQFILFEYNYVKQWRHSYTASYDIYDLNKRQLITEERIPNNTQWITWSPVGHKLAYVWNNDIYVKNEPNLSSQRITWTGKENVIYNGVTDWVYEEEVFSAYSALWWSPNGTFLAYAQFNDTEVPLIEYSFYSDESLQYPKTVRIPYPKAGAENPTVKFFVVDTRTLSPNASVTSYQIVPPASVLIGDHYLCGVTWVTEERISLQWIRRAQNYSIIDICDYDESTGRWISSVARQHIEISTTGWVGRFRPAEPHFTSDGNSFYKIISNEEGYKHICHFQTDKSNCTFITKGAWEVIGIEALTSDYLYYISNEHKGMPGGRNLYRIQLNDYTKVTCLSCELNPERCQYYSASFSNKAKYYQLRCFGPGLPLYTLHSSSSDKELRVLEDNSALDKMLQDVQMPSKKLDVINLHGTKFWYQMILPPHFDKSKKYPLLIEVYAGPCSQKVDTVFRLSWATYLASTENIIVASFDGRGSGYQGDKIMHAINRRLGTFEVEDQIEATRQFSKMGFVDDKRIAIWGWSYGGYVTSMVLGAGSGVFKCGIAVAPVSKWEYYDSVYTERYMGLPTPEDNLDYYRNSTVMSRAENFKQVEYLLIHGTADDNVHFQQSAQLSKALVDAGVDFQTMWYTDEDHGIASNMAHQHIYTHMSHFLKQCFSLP
T1 sequence (P22411 whole entry): as above

Compound | Insulin secretion from BRIN-BD11 cells (BRIN-BD11 cells) | half-life at 44.4 µg/mL (DPP-4) | also measured
HIS-PRO-LYS-ARG-PRO-TRP-ILE-LEU (HPKRPWIL; listed as Homo sapiens) [xenin-8, reference compound] | significantly (P<0.05 to P<0.001) stimulated insulin secretion |  | 
CC[C@H](C)[C@H](NC(=O)[C@H](CO)NC(=O)[C@H](Cc1ccc(O)cc1)NC(=O)[C@H](CC(=O)O)NC(=O)[C@H](CO)NC(=O)[C@@H](NC(=O)[C@H](Cc1ccccc1)NC(=O)[C@@H](NC(=O)CNC(=O)[C@H](CCC(=O)O)NC(=O)[C@@H](C)NC(=O)[C@@H](N)Cc1ccc(O)cc1)[C@@H](C)O)[C@@H](C)CC)C(=O)N[C@@H](C)C(=O)N[C@@H](CCSC)C(=O)N[C@@H](Cc1c[nH]cn1)C(=O)N1CCC[C@H]1C(=O)N[C@@H](CCC(N)=O)C(=O)N[C@@H](CCC(N)=O)C(=O)N1CCC[C@H]1C(=O)N[C@@H](Cc1c[nH]c2ccccc12)C(=O)N[C@H](C(=O)N[C@@H](CC(C)C)C(=O)O)[C@@H](C)CC [(DAla2)GIP/xenin-8-Gln, TYR-(d)ALA-GLU-GLY-THR-PHE-ILE-SER-ASP-TYR-SER-ILE-ALA-MET-HIS-PRO-GLN-GLN-PRO-TRP-ILE-LEU] (H-Y[dA]EGTFISDYSIAMHPQQPWIL-OH; N-terminus and C-terminus assumed) |  | > 12 h | Intactness on incubation with DPP-4 (purified porcine DPP-4): remained fully intact
MET-LEU-THR-LYS-PHE-GLU-THR-LYS-SER-ALA-ARG-VAL-LYS-GLY-LEU-SER-PHE-HIS-PRO-LYS-ARG-PRO-TRP-ILE-LEU (MLTKFETKSARVKGLSFHPKRPWIL; listed as Homo sapiens) [xenin, reference compound] | significantly (P<0.05 to P<0.001) stimulated insulin secretion |  | Appetite suppressive effect at 90 min post-injection (lean control mice): significantly (P<0.05) superior to control mice
HIS-PRO-GLN-GLN-PRO-TRP-ILE-LEU-GLY-ALA-ALA-GLU-GLU-GLU-GLU-GLU-GLU (HPQQPWILGAAEEEEEE; listed as Homo sapiens) [GIP(L-Glu)] |  |  | Insulin secretory effect in BRIN BD11 beta-cells of C-terminally modified peptide (BRIN-BD11 cells; 10^−12-10^−6 M, vs 5.6 mM glucose alone): does not hinder biological activity at the cellular level
CC[C@H](C)[C@H](NC(=O)[C@H](CO)NC(=O)[C@H](Cc1ccc(O)cc1)NC(=O)[C@H](CC(=O)O)NC(=O)[C@H](CO)NC(=O)[C@@H](NC(=O)[C@H](Cc1ccccc1)NC(=O)[C@@H](NC(=O)CNC(=O)[C@H](CCC(=O)O)NC(=O)[C@H](C)NC(=O)[C@@H](N)Cc1ccc(O)cc1)[C@@H](C)O)[C@@H](C)CC)C(=O)N[C@@H](C)C(=O)N[C@@H](CCSC)C(=O)N[C@@H](CC(=O)O)C(=O)N[C@@H](CCCCN)C(=O)N[C@H](C(=O)N[C@@H](Cc1c[nH]cn1)C(=O)N[C@@H](CCC(N)=O)C(=O)N[C@@H](CCC(N)=O)C(=O)N[C@@H](CC(=O)O)C(=O)N[C@@H](Cc1ccccc1)C(=O)N[C@H](C(=O)N[C@@H](CC(N)=O)C(=O)N[C@@H](Cc1c[nH]c2ccccc12)C(=O)N[C@@H](CC(C)C)C(=O)N[C@@H](CC(C)C)C(=O)N[C@@H](C)C(=O)N[C@@H](CCC(N)=O)C(=O)N[C@@H](CCCCN)C(=O)NCC(=O)N[C@@H](CCCCN)C(=O)N[C@@H](CCCCN)C(=O)N[C@@H](CC(N)=O)C(=O)N[C@@H](CC(=O)O)C(=O)N[C@@H](Cc1c[nH]c2ccccc12)C(=O)N[C@@H](CCCCN)C(=O)N[C@@H](Cc1c[nH]cn1)C(=O)N[C@@H](CC(N)=O)C(=O)N[C@H](C(=O)N[C@H](C(=O)N[C@@H](CCC(N)=O)C(=O)O)[C@@H](C)O)[C@@H](C)CC)C(C)C)[C@@H](C)CC [Native GIP, reference compound] |  | < 1 h | 
